Measured values from US20120245137A1 (Zalicus Pharmaceuticals Ltd., priority 2009, published 2012).

Columns and labels:
Format in all cases: cell-based
[1] = biological target: human α1H T-type channels (Homo sapiens, UniProt O95180); assay: T-type calcium channel block, whole cell patch clamp, α1H; settings: HEK cells stably expressing human α1H; mainly non-inactivated protocol; values above 10,000 nM represented as 10000
Summary of the method: (§1)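 Read-out: current block in whole-cell patch clamp of HEK 293 cells stably expressing human α1G or α1H subunits. Compounds were perfused locally in external solution (0.1-0.01% DMSO) under resting and inactivating voltage protocols.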

[2] = biological target: N-type calcium channel subunits (α1B, α2δ, and β3a) (Homo sapiens, UniProt Q00975); assay: Block of Cav2.2 channel, whole cell voltage clamp, manual and PatchXpress; settings: Table 5; table follows Assay Example 3 (whole cell voltage clamp / PatchXpress); assay not given
Summary of the method: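 Percent block taken as current amplitude ratio with versus without compound, applied in rising doses; IC50 fitted where one cell received multiple doses. Protocol: 50 ms pulses to +20 mV at 0.067 Hz from […] or −90 mV holding; P/n leak subtraction, no junction-potential correction; manual and PatchXpress recordings.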

[3] = biological target: human α1G T-type channels (Homo sapiens, UniProt O43497); assay: T-type calcium channel block, whole cell patch clamp, α1G; settings: HEK cells stably expressing human α1G; mainly non-inactivated protocol; values above 10,000 nM represented as 10000
Summary of the method: as §1

Chain of human α1H T-type channels (O95180 whole entry, the tested form may be a part): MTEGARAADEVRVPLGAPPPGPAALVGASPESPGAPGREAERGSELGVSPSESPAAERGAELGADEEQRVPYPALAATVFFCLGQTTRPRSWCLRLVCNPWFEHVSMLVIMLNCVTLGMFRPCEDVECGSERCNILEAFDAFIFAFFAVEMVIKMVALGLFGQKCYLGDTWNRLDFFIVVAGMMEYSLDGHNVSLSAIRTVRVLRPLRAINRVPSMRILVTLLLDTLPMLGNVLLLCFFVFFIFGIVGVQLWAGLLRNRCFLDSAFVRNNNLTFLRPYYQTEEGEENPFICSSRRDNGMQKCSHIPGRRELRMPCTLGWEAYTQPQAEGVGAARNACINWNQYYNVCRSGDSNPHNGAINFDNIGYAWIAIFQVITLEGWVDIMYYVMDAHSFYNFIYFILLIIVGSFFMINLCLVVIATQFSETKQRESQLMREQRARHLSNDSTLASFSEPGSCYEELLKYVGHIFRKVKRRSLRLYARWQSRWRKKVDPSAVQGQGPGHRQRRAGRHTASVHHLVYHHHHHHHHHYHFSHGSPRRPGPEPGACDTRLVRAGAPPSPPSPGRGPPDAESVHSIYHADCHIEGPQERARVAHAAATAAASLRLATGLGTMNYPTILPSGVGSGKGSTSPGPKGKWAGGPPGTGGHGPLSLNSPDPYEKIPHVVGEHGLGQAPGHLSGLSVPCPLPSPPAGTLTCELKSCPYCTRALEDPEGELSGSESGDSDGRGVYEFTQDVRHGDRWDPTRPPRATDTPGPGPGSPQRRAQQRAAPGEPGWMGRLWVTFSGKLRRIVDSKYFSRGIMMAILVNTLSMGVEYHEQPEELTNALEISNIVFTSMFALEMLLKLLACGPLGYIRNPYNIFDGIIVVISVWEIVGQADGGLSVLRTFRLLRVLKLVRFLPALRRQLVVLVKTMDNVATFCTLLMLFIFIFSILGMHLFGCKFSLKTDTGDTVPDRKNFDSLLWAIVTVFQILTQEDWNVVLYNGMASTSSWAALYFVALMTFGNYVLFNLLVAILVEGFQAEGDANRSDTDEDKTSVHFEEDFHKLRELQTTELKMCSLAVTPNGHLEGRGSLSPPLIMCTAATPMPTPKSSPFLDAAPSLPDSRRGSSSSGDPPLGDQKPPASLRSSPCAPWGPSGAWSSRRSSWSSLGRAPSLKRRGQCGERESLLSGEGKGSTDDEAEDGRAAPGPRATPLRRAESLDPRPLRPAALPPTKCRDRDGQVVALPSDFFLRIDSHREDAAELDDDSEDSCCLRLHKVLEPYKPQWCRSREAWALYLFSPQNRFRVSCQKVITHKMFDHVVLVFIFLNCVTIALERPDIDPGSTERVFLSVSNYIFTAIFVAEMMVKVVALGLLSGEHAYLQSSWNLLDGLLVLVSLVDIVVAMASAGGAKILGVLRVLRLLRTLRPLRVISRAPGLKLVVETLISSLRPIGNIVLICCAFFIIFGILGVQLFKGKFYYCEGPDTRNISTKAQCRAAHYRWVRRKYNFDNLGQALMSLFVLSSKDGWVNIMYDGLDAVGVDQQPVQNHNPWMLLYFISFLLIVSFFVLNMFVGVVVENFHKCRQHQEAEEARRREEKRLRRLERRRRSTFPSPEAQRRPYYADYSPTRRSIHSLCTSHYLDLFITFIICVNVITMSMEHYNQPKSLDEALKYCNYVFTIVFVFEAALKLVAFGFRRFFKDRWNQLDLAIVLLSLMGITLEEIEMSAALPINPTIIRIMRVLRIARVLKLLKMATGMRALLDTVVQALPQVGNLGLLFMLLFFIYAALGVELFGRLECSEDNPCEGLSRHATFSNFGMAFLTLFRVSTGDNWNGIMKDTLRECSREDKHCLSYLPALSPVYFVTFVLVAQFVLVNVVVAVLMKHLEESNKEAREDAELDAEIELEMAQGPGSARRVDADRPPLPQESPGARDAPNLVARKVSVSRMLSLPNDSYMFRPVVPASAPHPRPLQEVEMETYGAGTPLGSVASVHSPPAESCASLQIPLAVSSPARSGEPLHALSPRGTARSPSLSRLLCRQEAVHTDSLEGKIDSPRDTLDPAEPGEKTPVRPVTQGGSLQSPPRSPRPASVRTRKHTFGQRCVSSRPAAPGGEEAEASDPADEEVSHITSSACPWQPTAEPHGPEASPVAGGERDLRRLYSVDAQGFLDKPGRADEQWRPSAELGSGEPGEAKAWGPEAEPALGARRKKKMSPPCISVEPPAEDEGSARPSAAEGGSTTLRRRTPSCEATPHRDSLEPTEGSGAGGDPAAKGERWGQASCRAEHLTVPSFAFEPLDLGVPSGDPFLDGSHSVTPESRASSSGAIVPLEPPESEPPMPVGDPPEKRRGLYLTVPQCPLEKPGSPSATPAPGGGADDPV
Chain of human α1G T-type channels (O43497 whole entry): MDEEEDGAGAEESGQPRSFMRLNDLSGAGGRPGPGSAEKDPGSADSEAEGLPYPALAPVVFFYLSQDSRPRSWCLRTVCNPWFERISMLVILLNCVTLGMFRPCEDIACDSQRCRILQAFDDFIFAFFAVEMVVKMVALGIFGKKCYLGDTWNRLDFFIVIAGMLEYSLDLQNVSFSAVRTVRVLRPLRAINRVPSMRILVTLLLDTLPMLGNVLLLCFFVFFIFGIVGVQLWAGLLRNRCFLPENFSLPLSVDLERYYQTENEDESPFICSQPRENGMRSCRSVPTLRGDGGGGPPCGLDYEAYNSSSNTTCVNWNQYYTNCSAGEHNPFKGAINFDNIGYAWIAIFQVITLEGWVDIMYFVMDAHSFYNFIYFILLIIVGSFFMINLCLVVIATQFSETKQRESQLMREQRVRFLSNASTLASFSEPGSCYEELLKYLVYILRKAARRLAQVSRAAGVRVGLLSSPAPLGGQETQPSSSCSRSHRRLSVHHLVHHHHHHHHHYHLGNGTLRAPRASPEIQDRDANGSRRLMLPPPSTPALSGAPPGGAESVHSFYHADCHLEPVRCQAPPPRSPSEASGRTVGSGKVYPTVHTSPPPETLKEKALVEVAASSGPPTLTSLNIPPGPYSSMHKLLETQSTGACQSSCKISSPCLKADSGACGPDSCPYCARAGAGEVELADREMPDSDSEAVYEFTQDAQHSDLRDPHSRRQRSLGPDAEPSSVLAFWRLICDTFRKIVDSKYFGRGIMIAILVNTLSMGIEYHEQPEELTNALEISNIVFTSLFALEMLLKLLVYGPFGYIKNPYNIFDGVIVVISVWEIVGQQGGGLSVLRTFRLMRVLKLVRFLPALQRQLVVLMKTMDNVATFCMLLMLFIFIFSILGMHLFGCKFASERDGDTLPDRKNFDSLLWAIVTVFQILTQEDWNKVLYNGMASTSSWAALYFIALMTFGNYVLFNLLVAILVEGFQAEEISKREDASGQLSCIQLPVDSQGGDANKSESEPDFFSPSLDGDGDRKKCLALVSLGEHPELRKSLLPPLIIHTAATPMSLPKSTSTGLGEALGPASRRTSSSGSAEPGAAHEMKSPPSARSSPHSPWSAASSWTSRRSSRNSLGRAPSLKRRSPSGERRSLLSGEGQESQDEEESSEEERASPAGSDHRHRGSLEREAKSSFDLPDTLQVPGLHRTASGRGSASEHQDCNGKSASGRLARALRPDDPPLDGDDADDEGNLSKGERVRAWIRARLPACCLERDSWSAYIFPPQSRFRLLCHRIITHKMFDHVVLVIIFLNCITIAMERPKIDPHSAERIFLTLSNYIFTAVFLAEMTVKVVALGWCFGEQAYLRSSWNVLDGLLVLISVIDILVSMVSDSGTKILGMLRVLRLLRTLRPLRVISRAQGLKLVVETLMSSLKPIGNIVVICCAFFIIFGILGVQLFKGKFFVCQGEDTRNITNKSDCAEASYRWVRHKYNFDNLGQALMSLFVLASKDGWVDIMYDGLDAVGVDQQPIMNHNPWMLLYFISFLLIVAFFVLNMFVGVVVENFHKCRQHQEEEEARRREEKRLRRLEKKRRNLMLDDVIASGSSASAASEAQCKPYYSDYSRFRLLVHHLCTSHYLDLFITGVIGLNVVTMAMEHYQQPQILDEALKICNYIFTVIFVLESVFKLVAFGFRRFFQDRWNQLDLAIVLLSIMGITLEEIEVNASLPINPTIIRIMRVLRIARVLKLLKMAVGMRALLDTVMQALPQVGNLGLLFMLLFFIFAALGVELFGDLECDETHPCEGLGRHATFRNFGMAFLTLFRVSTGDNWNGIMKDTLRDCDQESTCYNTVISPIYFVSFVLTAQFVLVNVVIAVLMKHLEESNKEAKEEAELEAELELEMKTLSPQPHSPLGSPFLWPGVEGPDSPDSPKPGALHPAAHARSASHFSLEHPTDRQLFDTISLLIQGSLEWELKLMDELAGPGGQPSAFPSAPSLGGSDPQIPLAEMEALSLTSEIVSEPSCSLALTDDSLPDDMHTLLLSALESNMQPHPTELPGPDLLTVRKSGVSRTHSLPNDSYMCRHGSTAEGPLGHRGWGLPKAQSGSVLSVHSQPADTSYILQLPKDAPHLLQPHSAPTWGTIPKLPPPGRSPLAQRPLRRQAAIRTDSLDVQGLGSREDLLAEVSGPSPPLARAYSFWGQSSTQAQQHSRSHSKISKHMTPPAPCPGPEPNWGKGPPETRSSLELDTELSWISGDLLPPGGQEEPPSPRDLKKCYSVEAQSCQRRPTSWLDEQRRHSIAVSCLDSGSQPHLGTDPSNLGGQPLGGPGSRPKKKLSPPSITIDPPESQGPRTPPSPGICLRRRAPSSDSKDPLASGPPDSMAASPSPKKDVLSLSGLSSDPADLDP

| Molecule | IC50 [1] | IC50 [2] | IC50 [3] |
| --- | --- | --- | --- |
| O=C(Nc1cc(C(F)(F)F)ccn1)[C@H]1C[C@H](S(=O)(=O)c2cccc(C(F)(F)F)c2)C1 [Compound 409, (1R,3R)-3-(3-(trifluoromethyl)phenylsulfonyl)-N-(4-(trifluoromethyl)pyridin-2-yl)cyclobutanecarboxamide] | 3620 nM | 1690 nM | 2650 nM |
| O=C(Nc1cc(C(F)(F)F)ccn1)[C@H]1C[C@@H](S(=O)(=O)c2cccc(C(F)(F)F)c2)C1 [Compound 410, (1S,3S)-3-(3-(trifluoromethyl)phenylsulfonyl)-N-(4-(trifluoromethyl)pyridin-2-yl)cyclobutanecarboxamide] | 1790 nM | 1240 nM | 3490 nM |
| O=C(Nc1cccc(C(F)(F)F)n1)[C@H]1C[C@H](S(=O)(=O)c2cccc(C(F)(F)F)c2)C1 [Compound 411, (1R,3R)-3-(3-(trifluoromethyl)phenylsulfonyl)-N-(6-(trifluoromethyl)pyridin-2-yl)cyclobutanecarboxamide] | 2430 nM | 1020 nM | > 10000 nM |
| O=C(Nc1cccc(C(F)(F)F)n1)[C@H]1C[C@@H](S(=O)(=O)c2cccc(C(F)(F)F)c2)C1 [Compound 412, (1S,3S)-3-(3-(trifluoromethyl)phenylsulfonyl)-N-(6-(trifluoromethyl)pyridin-2-yl)cyclobutanecarboxamide] | 1550 nM | 590 nM | 6810 nM |
| O=C(Nc1ccc(C(F)(F)F)cn1)[C@H]1C[C@H](S(=O)(=O)c2cccc(C(F)(F)F)c2)C1 [Compound 415, (1R,3R)-3-(3-(trifluoromethyl)phenylsulfonyl)-N-(5-(trifluoromethyl)pyridin-2-yl)cyclobutanecarboxamide] | > 10000 nM | 1760 nM | > 10000 nM |
| O=C(Nc1ccc(C(F)(F)F)cn1)[C@H]1C[C@@H](S(=O)(=O)c2cccc(C(F)(F)F)c2)C1 [Compound 416, (1S,3S)-3-(3-(trifluoromethyl)phenylsulfonyl)-N-(5-(trifluoromethyl)pyridin-2-yl)cyclobutanecarboxamide] | 8180 nM | 1650 nM | > 10000 nM |
| Cc1nc(C(F)(F)F)ccc1NC(=O)[C@H]1C[C@H](S(=O)(=O)c2cccc(C(F)(F)F)c2)C1 [Compound 417, (1R,3R)-N-(2-methyl-6-(trifluoromethyl)pyridin-3-yl)-3-(3-(trifluoromethyl)phenylsulfonyl)cyclobutane carboxamide] | 4690 nM | 5440 nM | > 10000 nM |
| Cc1nc(C(F)(F)F)ccc1NC(=O)[C@H]1C[C@@H](S(=O)(=O)c2cccc(C(F)(F)F)c2)C1 [Compound 418, (1S,3S)-N-(2-methyl-6-(trifluoromethyl)pyridin-3-yl)-3-(3-(trifluoromethyl)phenylsulfonyl)cyclobutane carboxamide] | 2870 nM | 3500 nM | > 10000 nM |
| O=C(Nc1cncc(Cl)c1)[C@H]1C[C@H](S(=O)(=O)c2cccc(C(F)(F)F)c2)C1 [Compound 419, (1R,3R)-N-(5-chloropyridin-3-yl)-3-(3-(trifluoromethyl)phenylsulfonyl)cyclobutane carboxamide] | > 10000 nM | 3430 nM | > 10000 nM |
| O=C(Nc1cncc(Cl)c1)[C@H]1C[C@@H](S(=O)(=O)c2cccc(C(F)(F)F)c2)C1 [Compound 420, (1S,3S)-N-(5-chloropyridin-3-yl)-3-(3-(trifluoromethyl)phenylsuIfonyl)cyclobutane carboxamide] | 710 nM | 1250 nM | 2020 nM |
| Cc1noc(C)c1S(=O)(=O)NC[C@H]1C[C@H](S(=O)(=O)c2cccc(C(F)(F)F)c2)C1 [Compound 422, 3,5-dimethyl-N-(((1R,3R)-3-(3-(trifluoromethyl)phenylsulfonyl)cyclobutyl)methyl)isoxazole-4-sulfonamide] | 1390 nM | 2670 nM | 2250 nM |
| O=S(=O)(NC[C@H]1C[C@H](S(=O)(=O)c2cccc(C(F)(F)F)c2)C1)c1ccc(C(F)(F)F)cc1Cl [Compound 423, 2-chloro-4-(trifluoromethyl)-N-(((1R,3R)-3-(3-(trifluoromethyl)phenylsulfonyl)cyclobutyl)methyl)benzenesulfonamide] | > 10000 nM | 1280 nM | > 10000 nM |
| O=S(=O)(NC[C@H]1C[C@H](S(=O)(=O)c2cccc(C(F)(F)F)c2)C1)c1ccc(C(F)(F)F)cc1 [Compound 424, 4-(trifluoromethyl)-N-(((1R,3R)-3-(3-(trifluoromethyl)phenylsulfonyl)cyclobutyl)methyl)benzenesulfonamide] | 1040 nM | 1460 nM | 2290 nM |
| O=S(=O)(CCC(F)(F)F)NC[C@H]1C[C@H](S(=O)(=O)c2cccc(C(F)(F)F)c2)C1 [Compound 425, 3,3,3-trifluoro-N-(((1R,3R)-3-(3-(trifluoromethyl)phenylsulfonyl)cyclobutyl)methyl)propane-1-sulfonamide] | 1070 nM | 3760 nM | 1550 nM |
| O=S(=O)(NC[C@H]1C[C@H](S(=O)(=O)c2cccc(C(F)(F)F)c2)C1)c1cccc(C(F)(F)F)c1 [Compound 427, 3-(trifluoromethyl)-N-(((1R,3R)-3-(3-(trifluoromethyl)phenylsulfonyl)cyclobutyl)methyl)benzenesulfonamide] | 880 nM | 920 nM | 3820 nM |
| O=C(N[C@H]1C[C@H](S(=O)(=O)c2cccc(C(F)(F)F)c2)C1)c1ccc(Cl)c(F)c1 [Compound 429, 4-chloro-3-fluoro-N-((1S,3S)-3-(3-(trifluoromethyl)phenylsulfonyl)cyclobutyl)benzamide] | 8370 nM | 770 nM | > 10000 nM |
| O=C(CN[C@H]1C[C@@H](S(=O)(=O)c2cccc(C(F)(F)F)c2)C1)NC1CCC(F)(F)CC1 [Compound 431, N-(4,4-difluorocyclohexyl)-2-((1S,3S)-3-(3-(trifluoromethyl)phenylsulfonyl)cyclobutylamino) acetamide] | 240 nM | 1840 nM | 920 nM |
| CC(C)S(=O)(=O)c1cc(C(F)(F)F)cnc1C(=O)N[C@H]1C[C@H](S(=O)(=O)c2cccc(C(F)(F)F)c2)C1 [Compound 432, 3-(isopropylsulfonyl)-5-(trifluoromethyl)-N-((1R,3R)-3-(3-(trifluoromethyl)phenylsulfonyl)cyclobutyl) picolinamide] | 330 nM | 810 nM | 1290 nM |
| CC([C@H]1C[C@H](NC(=O)c2ccc(F)c(Cl)c2)C1)S(=O)(=O)c1cccc(C(F)(F)F)c1 (stereo partly drawn) [Compound 434, 3-chloro-4-fluoro-N-((1R,3R)-3-( (R)-1-(3-(trifluoromethyl)phenylsulfonyl)ethyl)cyclobutyl)benzamide] | 680 nM | 210 nM | 1130 nM |
| N-tert-butyl-2-((1S,4S)-4-((3- (trifluoromethyl)phenylsulfonyl) methyl)cyclohexylamino)acetamide [Compound 144] | 670 nM | 1250 nM | 1350 nM |
